Test results as given in US7335632B2, “Beta-secretase inhibitors and methods of use thereof” (CoMentis, Inc., priority 2001, dated 2008).

Columns and labels:
Cathepsin D = Cathepsin D (Homo sapiens, UniProt P07339); test: Inhibition of cathepsin D activity (substrate peptide […], MALDI-TOF); type: biochemical; conditions: pH 4.1, 37 degrees C., substrate NH3-[…]-CO2, MALDI-TOF; read-out: Cath D Ki
Aβ production = test: Cellular Aβ IC50 determination (Aβ40 sandwich ELISA); type: cell-based; conditions: Cricetulus griseus, Chinese hamster ovary cells over-expressing human APP695 with London and Swedish mutations, 24 h
Experimental: The potency of compounds against memapsin 2 activity was determined in a cellular assay of Aβ production. […] Chinese hamster ovary cells that over-express human APP695 with the London and Swedish mutations were seeded in multi-well plates at 10% confluency. Compounds were dissolved in DMSO to concentrations near 1 mM, and diluted into culture media to a final concentration near 4 μM (final 0.4% DMSO). Compounds were diluted serially and applied to cells in multi-well plates 48 h after seeding. Incubation was continued in 5% CO2 at 37 degrees C. for 24 h. Aliquots were removed and assayed for Aβ40 content using a sandwich ELISA (BioSource International). Amount of Aβ40 over the range of concentration of compounds, relative to control incubations, were fit to a 4-parameter IC50 model.

memapsin 1 = biological target: T1, memapsin 1 (Homo sapiens, UniProt Q9Y5Z0); test: Inhibition of memapsin 1 beta-secretase activity (substrate peptide […], MALDI-TOF); type: biochemical; conditions: pH 4.1, 37 degrees C., substrate NH3-ELDLAVEFWHDR-CO2, MALDI-TOF; read-out: M1 Ki
T1 sequence (Q9Y5Z0 63-518): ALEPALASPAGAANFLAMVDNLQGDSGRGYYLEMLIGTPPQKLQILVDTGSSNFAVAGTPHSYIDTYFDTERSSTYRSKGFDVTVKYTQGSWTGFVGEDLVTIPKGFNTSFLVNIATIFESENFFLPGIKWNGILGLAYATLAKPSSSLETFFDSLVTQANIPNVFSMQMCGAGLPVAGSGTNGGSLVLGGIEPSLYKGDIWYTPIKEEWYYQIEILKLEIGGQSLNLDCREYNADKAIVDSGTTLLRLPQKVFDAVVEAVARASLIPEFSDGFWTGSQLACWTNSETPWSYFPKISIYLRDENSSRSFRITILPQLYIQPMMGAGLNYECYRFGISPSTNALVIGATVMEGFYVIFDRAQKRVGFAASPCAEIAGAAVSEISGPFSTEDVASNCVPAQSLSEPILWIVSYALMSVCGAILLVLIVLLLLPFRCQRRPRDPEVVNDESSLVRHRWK

memapsin 2 = memapsin 2 (Homo sapiens, UniProt P56817); test: Inhibition of memapsin 2 beta-secretase activity toward fluorogenic substrate FS-2; type: biochemical; conditions: pH 4, 37° C., 20 minutes pre-incubation, substrate FS-2, tight-binding model; read-out: M2 Ki
Experimental: Potency of compounds were determined by measurement of their inhibition of memapsin 2 activity toward a fluorescent substrate. […] Briefly, assays were performed at pH 4, 37° C., by pre-incubation of memapsin 2 enzyme with compound for 20 minutes. Activity measure was initiated by addition of a fluorogenic substrate FS-2 (Bachem Americas, Torrance, Calif.). Fluorescent signal increase over time was measured as a rate of hydrolysis of the peptide substrate.

Sequence of memapsin 2 (P56817 46-501): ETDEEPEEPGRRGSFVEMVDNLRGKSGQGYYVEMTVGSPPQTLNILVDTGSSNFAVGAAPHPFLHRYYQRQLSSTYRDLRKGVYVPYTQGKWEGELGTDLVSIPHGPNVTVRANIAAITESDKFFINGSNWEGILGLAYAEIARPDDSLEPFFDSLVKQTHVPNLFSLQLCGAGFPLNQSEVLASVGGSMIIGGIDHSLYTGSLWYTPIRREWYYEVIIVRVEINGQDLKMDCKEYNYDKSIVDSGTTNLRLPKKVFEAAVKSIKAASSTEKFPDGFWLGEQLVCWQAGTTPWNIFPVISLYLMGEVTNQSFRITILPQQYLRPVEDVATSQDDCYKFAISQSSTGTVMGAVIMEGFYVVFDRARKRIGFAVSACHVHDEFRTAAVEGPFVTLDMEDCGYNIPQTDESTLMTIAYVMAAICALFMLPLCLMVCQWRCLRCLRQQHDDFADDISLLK
Sequence of Cathepsin D (P07339 65-412, species assumed): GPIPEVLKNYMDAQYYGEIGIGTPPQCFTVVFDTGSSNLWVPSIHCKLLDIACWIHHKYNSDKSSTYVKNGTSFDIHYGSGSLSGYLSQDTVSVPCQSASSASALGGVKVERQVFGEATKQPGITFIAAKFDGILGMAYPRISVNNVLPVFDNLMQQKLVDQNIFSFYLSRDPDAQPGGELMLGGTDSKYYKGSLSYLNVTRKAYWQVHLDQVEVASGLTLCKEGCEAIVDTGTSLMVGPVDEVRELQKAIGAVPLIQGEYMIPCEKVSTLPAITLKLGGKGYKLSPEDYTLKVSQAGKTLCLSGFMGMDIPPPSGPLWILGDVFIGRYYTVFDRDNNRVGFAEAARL

Row | Ki (Cathepsin D) [µM] | IC50 (Aβ production) [µM] | Ki (memapsin 1) [µM] | Ki (memapsin 2) [µM] | Compound
1 | < 0.1 | < 6 | 0.1 to 1 | < 0.1 | CC[C@@H](Cn1nc(C)cc1C)C(=O)N[C@@H](CSC)C(=O)N[C@H](CC(C)C)[C@@H](O)C[C@@H](C)C(=O)N[C@@H](C(=O)NCC(C)C)C(C)C [Structure 3]
2 | 0.1 to 1 | 6 to 100 | 0.1 to 1 | < 0.1 | CCC(CC)S(=O)(=O)C[C@H](NC(=O)OCc1nc(C)cs1)C(=O)N[C@H](CC(C)C)[C@@H](O)C[C@@H](C)C(=O)N[C@@H](C(=O)NCC(C)C)C(C)C [Structure 73]
3 | < 0.1 | 6 to 100 | 0.1 to 1 | 0.1 to 1 | CSC[C@H](NC(=O)CCn1nc(C)cc1C)C(=O)N[C@H](CC(C)C)[C@@H](O)C[C@@H](C)C(=O)N[C@@H](C(=O)NCC(C)C)C(C)C [Structure 4]
4 | > 1 | > 100 | 0.1 to 1 | 0.1 to 1 | Cc1nc(COC(=O)N[C@@H](CS(C)(=O)=O)C(=O)N[C@H](CC(C)C)[C@@H](O)C[C@@H](C)C(=O)N[C@@H](C(=O)O)C(C)C)c(C)o1 [Structure 86]
5 | < 0.1 | < 6 | 0.1 to 1 | < 0.1 | Cc1csc(COC(=O)N[C@@H](CSC(C)C)C(=O)N[C@H](CC(C)C)[C@@H](O)C[C@@H](C)C(=O)N[C@@H](C(=O)NCC(C)C)C(C)C)n1 [Structure 32]
6 | 0.1 to 1 | 6 to 100 | 0.1 to 1 | < 0.1 | Cc1nc(COC(=O)N[C@@H](CS(=O)(=O)C(C)C)C(=O)N[C@H](CC(C)C)[C@@H](O)C[C@@H](C)C(=O)N[C@@H](C(=O)NCC(C)C)C(C)C)c(C)o1 [Structure 59]
7 | < 0.1 | < 6 | 0.1 to 1 | < 0.1 | Cc1csc(COC(=O)N[C@@H](CSCC(C)C)C(=O)N[C@H](CC(C)C)[C@@H](O)C[C@@H](C)C(=O)N[C@@H](C(=O)NCC(C)C)C(C)C)n1 [Structure 47]
8 | 0.1 to 1 | > 100 | 0.1 to 1 | < 0.1 | CCc1nc(COC(=O)N[C@@H](CS(C)(=O)=O)C(=O)N[C@H](CC(C)C)[C@@H](O)C[C@@H](C)C(=O)N[C@@H](C(=O)NCC(C)C)C(C)C)c(C)s1 [Structure 71]
9 | < 0.1 | < 6 | 0.1 to 1 | < 0.1 | Cc1nc(COC(=O)N[C@@H](CSC(C)C)C(=O)N[C@H](CC(C)C)[C@@H](O)C[C@@H](C)C(=O)N[C@@H](C(=O)NCC(C)C)C(C)C)c(C)o1 [Structure 60]
10 | < 0.1 | 6 to 100 | < 0.1 | 0.1 to 1 | Cc1nc(COC(=O)N[C@@H](CS(C)(=O)=O)C(=O)N[C@H](Cc2cc(F)cc(F)c2)[C@@H](O)C[C@@H](C)C(=O)N[C@@H](C(=O)NCC(C)C)C(C)C)c(C)o1 [Structure 78]
11 | 0.1 to 1 | > 100 | 0.1 to 1 | < 0.1 | Cc1cc(C)n(CCC(=O)N[C@@H](CS(C)(=O)=O)C(=O)N[C@@H](CC(C)C)[C@@H](O)C[C@@H](C)C(=O)N[C@@H](C(=O)NCC(C)C)C(C)C)n1 [Structure 5]
12 | 0.1 to 1 | 6 to 100 | 0.1 to 1 | < 0.1 | Cc1csc(COC(=O)N[C@@H](CS(C)(=O)=O)C(=O)N[C@H](CC(C)C)[C@@H](O)C[C@@H](C)C(=O)N[C@@H](C(=O)NCC(C)C)c2ccccc2)n1 [Structure 68]
13 | < 0.1 | < 6 | 0.1 to 1 | < 0.1 | CSC[C@H](NC(=O)C(C)Cc1nc(C)cs1)C(=O)N[C@H](CC(C)C)[C@@H](O)C[C@@H](C)C(=O)N[C@@H](C(=O)NCC(C)C)C(C)C (some centres unmarked) [Structure 34]
14 | < 0.1 | 6 to 100 | < 0.1 | 0.1 to 1 | CSC[C@H](NC(=O)OCc1nc(C)oc1C)C(=O)N[C@H](Cc1ccccc1)[C@@H](O)C[C@@H](C)C(=O)N[C@@H](C(=O)NCC(C)C)C(C)C [Structure 50]
15 | 0.1 to 1 | 6 to 100 | 0.1 to 1 | < 0.1 | Cc1csc(COC(=O)N[C@@H](CS(C)(=O)=O)C(=O)N[C@H](CC(C)C)[C@@H](O)C[C@@H](C)C(=O)N[C@@H](C(=O)NCC(C)C)C(C)C)n1 [Structure 16]
16 | < 0.1 | < 6 | < 0.1 | < 0.1 | Cc1csc(COC(=O)N[C@@H](CS(C)(=O)=O)C(=O)N[C@H](Cc2cc(F)cc(F)c2)[C@@H](O)C[C@@H](C)C(=O)N[C@@H](C(=O)NCC(C)C)C(C)C)n1 [Structure 79]
17 | 0.1 to 1 | 6 to 100 | 0.1 to 1 | < 0.1 | Cc1csc(COC(=O)N[C@@H](CS(=O)(=O)C(C)C)C(=O)N[C@H](CC(C)C)[C@@H](O)C[C@@H](C)C(=O)N[C@@H](C(=O)NCC(C)C)C(C)C)n1 [Structure 31]
18 | 0.1 to 1 | < 6 | < 0.1 | < 0.1 | Cc1cc(C)n(COC(=O)N[C@@H](C[S+](C)[O-])C(=O)N[C@@H](CC(C)C)[C@@H](O)C[C@@H](C)C(=O)N[C@H](C(=O)NCC(C)C)C(C)C)n1 (some centres unmarked) [Structure 9]
19 | < 0.1 | > 100 | 0.1 to 1 | < 0.1 | Cc1csc(COC(=O)N[C@@H](CSC2CCCC2)C(=O)N[C@H](CC(C)C)[C@@H](O)C[C@@H](C)C(=O)N[C@@H](C(=O)NCC(C)C)C(C)C)n1 [Structure 56]
20 | 0.1 to 1 | > 100 | 0.1 to 1 | < 0.1 | CCC(C)S(=O)(=O)C[C@H](NC(=O)OCc1nc(C)cs1)C(=O)N[C@H](CC(C)C)[C@@H](O)C[C@@H](C)C(=O)N[C@@H](C(=O)NCC(C)C)C(C)C (some centres unmarked) [Structure 67]
21 | < 0.1 | < 6 | < 0.1 | < 0.1 | CSC[C@H](NC(=O)OCc1nc(C)sc1C)C(=O)N[C@H](CC(C)C)[C@@H](O)C[C@@H](C)C(=O)N[C@@H](C(=O)NCC(C)C)C(C)C [Structure 53]
22 | 0.1 to 1 | > 100 | < 0.1 | < 0.1 | Cc1csc(COC(=O)N[C@@H](CS(=O)(=O)CC(C)C)C(=O)N[C@H](CC(C)C)[C@@H](O)C[C@@H](C)C(=O)N[C@@H](C(=O)NCC(C)C)C(C)C)n1 [Structure 49]
23 | < 0.1 | > 100 | < 0.1 | < 0.1 | CCSC[C@H](NC(=O)OCc1nc(C)cs1)C(=O)N[C@H](CC(C)C)[C@@H](O)C[C@@H](C)C(=O)N[C@@H](C(=O)NCC(C)C)C(C)C [Structure 19]
24 | 0.1 to 1 | > 100 | 0.1 to 1 | < 0.1 | Cc1csc(CC(C)C(=O)N[C@@H](CS(C)(=O)=O)C(=O)N[C@H](CC(C)C)[C@@H](O)C[C@@H](C)C(=O)N[C@@H](C(=O)NCC(C)C)C(C)C)n1 (some centres unmarked) [Structure 37]
25 | < 0.1 | < 6 | < 0.1 | < 0.1 | COCSC[C@H](NC(=O)OCc1nc(C)cs1)C(=O)N[C@H](CC(C)C)[C@@H](O)C[C@@H](C)C(=O)N[C@@H](C(=O)NCC(C)C)C(C)C [Structure 36]
26 | 0.1 to 1 | < 6 | 0.1 to 1 | < 0.1 | Cc1nc(COC(=O)N[C@@H](CS(C)(=O)=O)C(=O)N[C@H](CC(C)C)[C@@H](O)C[C@@H](C)C(=O)N[C@@H](C(=O)NN(C)C)C(C)C)c(C)o1 [Structure 57]
27 | 0.1 to 1 | < 6 | < 0.1 | < 0.1 | CC[C@@H](Cn1nc(C)cc1C)C(=O)N[C@@H](C[S+](C)[O-])C(=O)N[C@@H](CC(C)C)[C@@H](O)C[C@@H](C)C(=O)N[C@@H](C(=O)NCC(C)C)C(C)C (some centres unmarked) [Structure 8]
28 | < 0.1 | 6 to 100 | 0.1 to 1 | < 0.1 | CSC[C@H](NC(=O)OCc1nc(C)cs1)C(=O)N[C@H](CC(C)C)[C@@H](O)C[C@@H](C)C(=O)N[C@H](CC(C)C)C(=O)NC(C)C [Structure 43]
29 | < 0.1 | < 6 | 0.1 to 1 | < 0.1 | CC[C@@H](Cc1nc(C)cs1)C(=O)N[C@@H](CSC)C(=O)N[C@H](CC(C)C)[C@@H](O)C[C@@H](C)C(=O)N[C@@H](C(=O)NCC(C)C)C(C)C [Structure 75]
